Laboratory results: US20040220268A1, “Compound that directly stimulates phospholipase C activity” (priority 2003, published 2004)

How the values were obtained:
[1] = system: human neutrophils; assay: [Ca2+]i measurement with fura-2 in neutrophils; type: cell-based
Procedure: Fura-2-loaded neutrophils were stimulated with m-3M3FBS or o-3M3FBS at 25 μM in extracellular calcium containing 2 mM or extracellular free calcium conditions. The results shown are representative of three independent experiments (A). Prepared neutrophils were loaded with fura-2 and then stimulated with 25 μM of m-3M3FBS in the absence or in the presence of 4 μM of U-73122 or U-73343 (B). Changes in 340 nm/380 nm excitation ratio were monitored, and converted to [Ca^2+]i levels. Data are presented as means ±S. E. M. of three independent experiments.
(§1) Freshly prepared human neutrophils were incubated in serum free RPMI 1640 medium with 3 μM of fura-2/AM at 37° C. for 30 min with continuous stirring. After washing with serum free RPMI 1640 medium, the cells were suspended in serum free RPMI containing 250 μM of sulfinpyrazone to prevent dye leakage. About 2×10^6 cells were suspended in Ca^2+ free Locke's solution (158.4 mM NaCl, 5.6 mM KCl, 1.2 mM MgCl2, 5 mM HEPES pH 7.3, 10 mM glucose, and 0.2 mM EGTA) for each measurement. Changes in the fluorescence ratio were measured at an emission wavelength of 500 nm for dual excitation wavelengths at 340 nm and 380 nm. The calibration of the fluorescence ratio versus [Ca^2+]i was performed as described by Grynkiewicz (Grynkiewicz et al., 1985).

[2] = system: Gq-proteins; assay: [Ca2+]i in RGS2-GFP inducible HeLa cells; type: cell-based, human; settings: histamine 100 μM, m-3M3FBS 25 μM
Procedure: Isolated neutrophils were preincubated with PTX (1 μg/ml) or vehicle for 90 min at 37° C. and stimulated with m-3M3FBS, FMLF, or ATP at concentrations of 25, 1, and 500 μM, respectively. Changes in the excitation ratios at 340 nm/380 nm were monitored. Data are presented as means ±S. E. M. of two independent experiments (A). cAMP levels were determined by a radio receptor assay. Prepared cells were treated with m-3M3FBS (25 μM) or histamine (100 μM) and then lysed with Tris-EDTA. After removing the supernatant, [ 3H] cAMP and protein were added, and the amount of [^3H] cAMP-protein complex was determined. The amount of unlabeled cAMP (in the sample) was then calculated by measuring the protein-bound radioactivity. Data are presented as means ±S. E. M. of two independent experiments (B). […] RGS2-GFP inducible HeLa cells were cultured for 48 h in the absence or in the presence of tetracycline and loaded with fura-2. Cells were treated with histamine (100 μM) or m-3M3FBS (25 μM), and changes in the 340 nm/380 nm ratios were monitored and converted to [Ca^2+]i values. The results shown are representative of three independent experiments (C).
pRevTRE vector containing the cDNA of rat RGS2-GFP was transfected into Hela Tet-off cells using Lipofectamine. Selection was performed in DMEM supplemented with 2 μg/ml of tetracycline and 500 μg/ml of hygromycin B. Two weeks later, several well-isolated colonies were picked out and analyzed by western blotting to determine the expression level of RGS2 in the absence of tetracycline. For these experiments, HeLa cells were cultured for 48 h in the absence or in the presence of tetracycline.
as §1

[3] = system: PTX-sensitive Gi-proteins; assay: PTX sensitivity of [Ca2+]i increase in neutrophils; type: cell-based, human; settings: PTX 1 μg/ml for 90 min; m-3M3FBS 25 μM, fMLF 1 μM
Procedure: Isolated neutrophils were preincubated with PTX (1 μg/ml) or vehicle for 90 min at 37° C. and stimulated with m-3M3FBS, FMLF, or ATP at concentrations of 25, 1, and 500 μM, respectively. Changes in the excitation ratios at 340 nm/380 nm were monitored. Data are presented as means ±S. E. M. of two independent experiments (A). cAMP levels were determined by a radio receptor assay. Prepared cells were treated with m-3M3FBS (25 μM) or histamine (100 μM) and then lysed with Tris-EDTA. After removing the supernatant, [ 3H] cAMP and protein were added, and the amount of [^3H] cAMP-protein complex was determined. The amount of unlabeled cAMP (in the sample) was then calculated by measuring the protein-bound radioactivity. Data are presented as means ±S. E. M. of two independent experiments (B). RGS2-GFP inducible HeLa cells were cultured for 48 h in the absence or in the presence of tetracycline, and the induction of RGS2-GFP was confirmed by Western blot analysis using anti-GFP antibody (C). RGS2-GFP inducible HeLa cells were cultured for 48 h in the absence or in the presence of tetracycline and loaded with fura-2. Cells were treated with histamine (100 μM) or m-3M3FBS (25 μM), and changes in the 340 nm/380 nm ratios were monitored and converted to [Ca^2+]i values. The results shown are representative of three independent experiments (C).
as §1

[4] = system: U937 cells; assay: Formation of inositol phosphates in cells (in vivo PLC activity); type: cell-based, human
Procedure: U937 Cells were labeled with myo-[^3H] inositol (1 μCi/10^6 cells) for 24 h at 37° C. and then treated with various concentrations of m-3M3FBS or o-3M3FBS. Total inositol phosphates were eluted with a solution containing 1 M ammonium formate and 0.1 M formic acid. Radioactivity of the [3H] inositol phosphates was determined by counting in a scintillation counter. Data are presented as means ±S. E. M. of five independent experiments.
Cells grown in culture were harvested by centrifugation, washed with inositol-free RPMI 1640 medium, and resuspended at a density of 2×10^6 cells/ml in the same medium. The cells were then labeled with myo-[^3H] inositol (1 μCi/10^6 cells) for 24 h at 37° C. and rinsed twice with inositol-free RPMI 1640 medium containing 0.5% fetal bovine serum, 20 mM of Hepes at pH 7.2, 20 mM of LiCl, and bovine serum albumin (1 mg/ml) and then resuspended at a density of 2×10^7 cells/ml. A portion (0.1 ml) of the cell suspension was transferred to a microcentrifuge tube and incubated at 37° C. for 15 min. PIP2 hydrolysis was initiated by adding chemicals or solvents for the indicated times. Reactions were terminated by adding 200 μl of ice-cold 10% perchloric acid (HClO4). […] The radioactivity of the [3H] inositol phosphates was determined using a scintillation counter (Tri-Packard, Meriden, Conn.).

[5] = 25 μM, extracellular Ca2+ at physiologic levels (2 mM)

Structure (SMILES)	[Ca2+]i increase [1, 5]	[Ca2+]i increase ([1]; 25 μM, extracellular calcium-depleted condition)	concentration of saturated maximal activity of [Ca2+]i release ([1]; concentration dependent, data not shown)	calcium increase ([1]; human neutrophils, 25 μM)	[Ca2+]i increase ([2]; HeLa cells in the presence of tetracycline (RGS2 not induced))	effect of RGS2 induction on the induced calcium response ([2]; HeLa cells overexpressing RGS2)	effect of PTX preincubation on the induced calcium increase [3]	fold increase of accumulation of inositol phosphates ([4]; 50 μM)	effect on PLC activity (inositol phosphate formation) [4]
Cc1cc(C)c(S(=O)(=O)Nc2cccc(C(F)(F)F)c2)c(C)c1 [m-3M3FBS, 2,4,6-Trimethyl-N-(meta 3-trifluoromethyl-phenyl)-benzenesulfonamide]	caused a [Ca^2+]i increase	evoked a [Ca^2+]i increase	50 µM	induced calcium increase	caused [Ca^2+]i increases	unaffected	insensitive to PTX	2.5 fold	
Cc1cc(C)c(S(=O)(=O)Nc2ccccc2C(F)(F)F)c(C)c1 [o-3M3FBS, 2,4,6-Trimethyl-N-(ortho 3-trifluoromethyl-phenyl)-benzenesulfonamide, reference compound]	failed to elicit this response								no effect
